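48-hour exposure; five concentrations; linearly interpolated endpoints. TGI: concentration producing complete growth inhibition.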 Where a SMILES comes first, the peptide text is derived from it.

What all share (assay): growth of human tumour cells (NCI), 48 h
For assay [1], the system named is OVCAR-4 ovarian.
In assay [2] the test system is TK-10 renal.
Assay [3] deals with NCI-H226 lung.
Assay [4] deals with BT-549 breast.
Assay [5] deals with NCI-H23 lung.
The subject of assay [6] is PC-3 prostate.
The test system of assay [7] is A549 NSCLC.
The test system of assay [8] is ACHN renal.
The subject of assay [9] is SF-268 CNS.
In assay [10] the test system is A498 renal.
The subject of assay [11] is M14 melanoma.
Assay [12] deals with MDA-N.

`CC(C)CC(NC(=O)C(Cc1ccccc1)NC(=O)C(Cc1c[nH]c2ccccc12)NC(=O)CNC(=O)C(N)Cc1ccc(O)cc1)C(=O)O` (configuration not stated) (H-YGWFL-OH; configuration not given here): the TGI in [1], in assay [2], in [3], in assay [4], in assay [5] and in assay [6] was above 100 µM throughout. Further, the TGI in assay [7] was above 100 µM; in [8], above 100 µM; in assay [9] it was above 100 µM; in assay [10], 96 µM; in assay [11] it was above 100 µM; in assay [12], above 100 µM.

For `COC(=O)c1ccccc1/C=C1\Cc2c(C)cc(C)cc2C1=O`, the TGI in [1], in assay [2], in assay [3], in assay [4], in [6] and in [7] was above 100 µM throughout. For the same compound, the TGI in [8], in assay [9], in assay [10], in assay [11] and in assay [12] was above 100 µM in each case.

Regarding `O=C1N[C@@H]2c3c(Br)sc(Br)c3C(=O)[C@@H]2O1`, the TGI worked out at 3.43 µM in assay [1]; 10.5 µM in assay [2]; 28.8 µM in assay [3]; 24.1 µM in assay [4]; 7.35 µM in assay [5]; 18.7 µM in assay [6]. In addition, the TGI turned out to be 32.6 µM in [7]; 3.48 µM in [8]; 28.7 µM in assay [9]; 30.4 µM in assay [10]; 3.81 µM in assay [11]; 6.44 µM in assay [12].

As for `NC(Cc1ccc(S(=O)(=O)O)cc1)C(=O)NC(Cc1ccc(S(=O)(=O)O)cc1)C(=O)NC(Cc1ccc(S(=O)(=O)O)cc1)C(=O)O` (configuration not stated), the TGI in [1], in assay [2], in [3], in assay [4], in assay [5] and in assay [6] was above 100 µM throughout. Besides, the TGI in assay [7], in assay [8], in [9], in [10], in assay [11] and in assay [12] was above 100 µM in each case.

Turning to `CCOc1ccc(N=NS(=O)(=O)O)cc1`, the TGI in assay [1], in assay [2], in [3], in [4], in assay [5] and in assay [6] was above 100 µM each time. For the same compound, the TGI in [7], in [8], in assay [9], in assay [10], in [11] and in assay [12] was above 100 µM throughout.

As to `CC(C)C(C/C=C1/CC(CO)(COC(=O)c2ccccc2)OC1=O)C(C)C` (configuration not stated), the TGI is 30 µM in [1]; 32.3 µM in [2]; 32.4 µM in assay [3]; 33.2 µM in assay [4]; 34.7 µM in assay [5]; 28.1 µM in assay [6]. Moreover, the TGI came out at 26.5 µM in [7]; 28.2 µM in [8]; 31.8 µM in assay [9]; 39.7 µM in assay [10]; 32.2 µM in assay [11]; 31.2 µM in [12].

For `O=c1c2cc(I)ccc2nc(SCc2n[nH]c(=S)o2)n1Cc1ccccc1`, the TGI in [1] is 44.4 µM; in assay [2], 37.7 µM; in assay [3] it was 27.6 µM; in [4] it was 37.1 µM; in assay [5] it was 34.2 µM; in [6], 31.3 µM. In addition, the TGI in assay [7] amounted to 48.4 µM; in assay [8], 28.6 µM; in [9] it was 32.9 µM; in assay [10] it was 34.2 µM; in [11], 43.6 µM; in assay [12], 32 µM.

`Cc1nc2ccc(NC3OC(CO)C(O)C(O)C3O)cc2c(=O)n1-c1ccccc1` (configuration not stated): the TGI in [1], in assay [2], in [3], in assay [4], in assay [5] and in assay [6] was above 100 µM each time. The TGI in assay [8], in [9], in assay [10] and in assay [12] was above 100 µM in each case.

Take `C=C1C(=O)OC2CC(=C)C3CC=C(C)C3CC12` (configuration not stated): the TGI in [1] is above 100 µM; in [2], 34.4 µM; in assay [3], 43 µM; in assay [4], 59.7 µM; in [6], 28.4 µM; in assay [7] it was above 100 µM. The TGI in assay [8] was 47.8 µM; in [9], above 100 µM; in assay [10], above 100 µM; in assay [11], 40.9 µM; in assay [12] it was 30.6 µM.

Turning to `O=[N+]([O-])C(=C1Nc2ccccc2N1)/C(Cl)=C(/Cl)N1CCOCC1`, the TGI in assay [1] was 61 µM; in [3] it was above 100 µM; in assay [4], above 100 µM; in assay [5], above 100 µM; in assay [6], above 100 µM; in assay [7], above 100 µM. Also, the TGI was above 100 µM in [8]; 62.5 µM in assay [9]; above 100 µM in assay [10]; above 100 µM in assay [11]; above 100 µM in [12].

On to `CCOC(=O)/C=C/[C@H](O)[C@@H](O)/C=C/C(=O)OCC`, for which the TGI in [1], in assay [2], in assay [3], in assay [4], in [5] and in [6] was above 100 µM throughout. The TGI is above 100 µM in assay [7]; 60 µM in [8]; above 100 µM in assay [9]; above 100 µM in assay [10]; above 100 µM in [12].

For `O=[N+]([O-])/C(C(Cl)=C(Cl)Cl)=C(\Nc1ccccc1)n1nnc2ccccc21`, the TGI was 35 µM in [1]; above 100 µM in assay [3]; 70.2 µM in [4]; 61.2 µM in assay [5]; above 100 µM in [6]; above 100 µM in assay [7]. For the same compound, the TGI in assay [8] is above 100 µM; in assay [9], 36.3 µM; in [10] it was above 100 µM; in [11] it was above 100 µM; in [12] it was above 100 µM.
